The results in this text go back to patent publication US9302988B2, “Fluoromethyl-substituted pyrrole carboxamides” (GRÜNENTHAL GMBH, priority 2012, dated 2016).

In this assay the target is T1, Human CaV2.2 channels (Homo sapiens, UniProt Q00975).
T1 construct: expressed in transfected cells
T1 sequence (Q00975 whole entry): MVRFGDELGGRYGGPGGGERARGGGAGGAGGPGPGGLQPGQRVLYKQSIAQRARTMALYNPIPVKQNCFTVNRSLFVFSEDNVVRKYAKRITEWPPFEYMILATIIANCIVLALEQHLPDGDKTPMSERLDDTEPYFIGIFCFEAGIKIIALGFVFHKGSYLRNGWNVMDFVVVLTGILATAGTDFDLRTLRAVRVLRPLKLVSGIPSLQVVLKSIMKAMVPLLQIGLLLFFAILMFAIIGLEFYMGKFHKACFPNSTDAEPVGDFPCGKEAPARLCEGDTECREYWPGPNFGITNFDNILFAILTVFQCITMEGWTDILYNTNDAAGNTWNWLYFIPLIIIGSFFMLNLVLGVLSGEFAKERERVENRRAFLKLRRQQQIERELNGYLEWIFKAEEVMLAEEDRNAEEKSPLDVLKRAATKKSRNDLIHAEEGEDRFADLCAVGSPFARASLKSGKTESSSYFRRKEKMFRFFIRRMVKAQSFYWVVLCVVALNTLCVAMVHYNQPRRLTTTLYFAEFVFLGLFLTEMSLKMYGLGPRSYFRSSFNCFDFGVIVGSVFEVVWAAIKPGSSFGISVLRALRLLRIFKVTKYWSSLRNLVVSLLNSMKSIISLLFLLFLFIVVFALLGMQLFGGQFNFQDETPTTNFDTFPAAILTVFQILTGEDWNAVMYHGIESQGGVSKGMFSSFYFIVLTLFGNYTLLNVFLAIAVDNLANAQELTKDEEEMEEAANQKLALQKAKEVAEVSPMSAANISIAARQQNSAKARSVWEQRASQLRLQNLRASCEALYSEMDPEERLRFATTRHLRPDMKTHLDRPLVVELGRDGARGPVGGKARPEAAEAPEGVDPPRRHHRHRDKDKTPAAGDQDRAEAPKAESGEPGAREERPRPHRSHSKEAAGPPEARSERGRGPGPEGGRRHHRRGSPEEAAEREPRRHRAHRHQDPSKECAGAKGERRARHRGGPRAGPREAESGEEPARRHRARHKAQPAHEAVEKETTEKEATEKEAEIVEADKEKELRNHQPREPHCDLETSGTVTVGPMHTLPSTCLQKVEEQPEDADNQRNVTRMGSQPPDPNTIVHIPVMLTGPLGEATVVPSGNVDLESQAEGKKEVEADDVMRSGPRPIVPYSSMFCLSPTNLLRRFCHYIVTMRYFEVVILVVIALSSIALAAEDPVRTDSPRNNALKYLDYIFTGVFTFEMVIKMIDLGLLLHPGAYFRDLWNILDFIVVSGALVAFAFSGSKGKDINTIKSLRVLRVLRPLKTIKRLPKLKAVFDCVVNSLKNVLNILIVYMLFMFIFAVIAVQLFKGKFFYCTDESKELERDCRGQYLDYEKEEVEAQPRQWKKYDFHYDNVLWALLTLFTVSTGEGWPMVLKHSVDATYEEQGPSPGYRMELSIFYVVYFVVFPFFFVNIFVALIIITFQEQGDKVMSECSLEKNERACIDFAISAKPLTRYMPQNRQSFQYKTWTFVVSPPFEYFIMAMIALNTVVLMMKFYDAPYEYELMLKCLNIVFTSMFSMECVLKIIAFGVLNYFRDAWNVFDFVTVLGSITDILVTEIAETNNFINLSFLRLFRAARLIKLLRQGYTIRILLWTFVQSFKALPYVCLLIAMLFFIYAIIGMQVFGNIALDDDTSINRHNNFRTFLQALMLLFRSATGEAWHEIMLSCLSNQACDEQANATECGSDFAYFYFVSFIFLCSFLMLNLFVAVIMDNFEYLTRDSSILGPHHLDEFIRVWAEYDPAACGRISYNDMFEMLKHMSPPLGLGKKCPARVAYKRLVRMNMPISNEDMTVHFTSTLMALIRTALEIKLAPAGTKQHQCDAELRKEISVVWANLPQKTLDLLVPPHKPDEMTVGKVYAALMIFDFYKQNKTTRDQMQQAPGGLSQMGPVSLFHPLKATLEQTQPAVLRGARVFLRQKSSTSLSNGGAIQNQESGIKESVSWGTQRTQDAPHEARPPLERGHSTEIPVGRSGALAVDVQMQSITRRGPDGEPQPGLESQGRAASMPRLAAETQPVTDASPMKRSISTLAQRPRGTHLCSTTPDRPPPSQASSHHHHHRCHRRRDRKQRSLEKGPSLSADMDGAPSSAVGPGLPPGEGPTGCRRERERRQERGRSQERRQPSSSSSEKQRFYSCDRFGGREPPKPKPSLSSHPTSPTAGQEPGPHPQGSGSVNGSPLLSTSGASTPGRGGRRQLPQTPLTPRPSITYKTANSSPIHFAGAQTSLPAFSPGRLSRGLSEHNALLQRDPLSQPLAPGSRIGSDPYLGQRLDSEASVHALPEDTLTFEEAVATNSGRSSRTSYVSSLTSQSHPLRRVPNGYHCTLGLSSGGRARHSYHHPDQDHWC
T1 sequence (P54289 25-1103, further chain): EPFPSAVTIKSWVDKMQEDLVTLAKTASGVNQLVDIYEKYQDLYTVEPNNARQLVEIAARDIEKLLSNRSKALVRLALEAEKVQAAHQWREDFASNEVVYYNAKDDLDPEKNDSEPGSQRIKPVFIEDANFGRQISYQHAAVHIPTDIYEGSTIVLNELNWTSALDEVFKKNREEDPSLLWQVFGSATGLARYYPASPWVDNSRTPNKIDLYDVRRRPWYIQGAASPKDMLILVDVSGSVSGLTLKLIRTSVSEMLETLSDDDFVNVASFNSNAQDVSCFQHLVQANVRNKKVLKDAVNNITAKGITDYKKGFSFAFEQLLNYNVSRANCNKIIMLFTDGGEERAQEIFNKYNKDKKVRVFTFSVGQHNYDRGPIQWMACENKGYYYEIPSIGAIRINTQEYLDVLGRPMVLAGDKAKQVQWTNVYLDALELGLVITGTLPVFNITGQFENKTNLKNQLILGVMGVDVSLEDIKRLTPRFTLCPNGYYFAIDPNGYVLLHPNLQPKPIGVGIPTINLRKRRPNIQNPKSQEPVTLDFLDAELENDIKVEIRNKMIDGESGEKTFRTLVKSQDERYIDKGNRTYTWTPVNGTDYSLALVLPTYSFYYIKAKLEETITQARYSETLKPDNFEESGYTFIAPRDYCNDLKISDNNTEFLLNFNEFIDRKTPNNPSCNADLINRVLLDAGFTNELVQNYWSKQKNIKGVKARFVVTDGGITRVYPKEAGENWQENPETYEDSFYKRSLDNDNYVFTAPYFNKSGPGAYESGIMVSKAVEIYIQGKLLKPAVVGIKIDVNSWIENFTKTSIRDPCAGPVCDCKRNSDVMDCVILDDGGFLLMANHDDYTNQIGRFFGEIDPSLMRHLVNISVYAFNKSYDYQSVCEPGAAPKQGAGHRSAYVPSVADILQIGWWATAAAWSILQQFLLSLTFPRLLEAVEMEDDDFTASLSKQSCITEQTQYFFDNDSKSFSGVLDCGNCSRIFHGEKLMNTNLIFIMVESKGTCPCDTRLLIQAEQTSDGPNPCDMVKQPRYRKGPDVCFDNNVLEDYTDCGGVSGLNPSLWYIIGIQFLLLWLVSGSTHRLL
T1 sequence (P54284 whole entry, further chain): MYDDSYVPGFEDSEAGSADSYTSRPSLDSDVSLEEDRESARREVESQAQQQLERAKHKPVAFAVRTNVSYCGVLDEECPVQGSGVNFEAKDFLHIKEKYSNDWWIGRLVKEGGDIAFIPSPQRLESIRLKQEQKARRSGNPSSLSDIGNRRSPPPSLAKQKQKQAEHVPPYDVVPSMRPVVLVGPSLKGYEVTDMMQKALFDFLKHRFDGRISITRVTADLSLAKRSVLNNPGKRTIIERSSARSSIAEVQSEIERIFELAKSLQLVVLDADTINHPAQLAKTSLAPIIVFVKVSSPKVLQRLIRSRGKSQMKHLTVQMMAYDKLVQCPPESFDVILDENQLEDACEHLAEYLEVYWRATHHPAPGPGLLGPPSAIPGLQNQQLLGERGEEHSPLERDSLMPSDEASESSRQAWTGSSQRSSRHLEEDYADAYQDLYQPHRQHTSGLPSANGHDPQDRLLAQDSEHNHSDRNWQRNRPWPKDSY
Description: Fluorescent assay for CaV2.2 channels using potassium depolarization to induce channel opening (FLIPR, Fluo-4). Format: cell-based. The note with it: 3 μM test compound, 30 mM KCl, HEK293 cells stably expressing human CaV2.2; read-out: %-Inhib (CaV2.2) @3 μM @30 mM KCl. An outline of the steps:
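Channel block was read as the baseline-normalized peak Ca²⁺ signal (Fluo-4, 480/535 nm) after a high-KCl depolarizing addition (210 mM KCl buffer). Beforehand, compound sat 15 min at 25 °C on HEK293 cells carrying human CaV2.2, α2δ/β subunits and Kir2.3, in pH 7.4 buffer with 30 mM KCl.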
`Cc1c(-c2ccc(Cl)cc2F)c(C(=O)N2CC(O)C2)n(Cc2ccccc2)c1C(F)(F)F` [SC-154, [1-Benzyl-3-(4-chloro-2-fluoro-phenyl)-4-methyl-5-(trifluoromethyl)-1H-pyrrol-2-yl]-(3-hydroxy-azetidin-1-yl)-methanone]: the inhibition at 3 µM fell in the range of 75 to 95%.
Turning to `Cc1c(-c2ccc(Cl)cc2F)c(C(=O)N2CCOC(C)(C)C2)n(Cc2ccccc2)c1C(F)(F)F` [SC-155, [1-Benzyl-3-(4-chloro-2-fluoro-phenyl)-4-methyl-5-(trifluoromethyl)-1H-pyrrol-2-yl]-(2,2-dimethyl-morpholin-4-yl)-methanone], the inhibition at 3 µM was over 95%.
For `Cc1c(-c2ccc(Cl)cc2F)c(C(=O)N(C)C2CCOCC2)n(Cc2ccccc2)c1C(F)(F)F` [SC-156, 1-Benzyl-3-(4-chloro-2-fluoro-phenyl)-N,4-dimethyl-N-tetrahydro-pyran-4-yl-5-(trifluoromethyl)-1H-pyrrole-2-carboxylic acid amide] the value was over 95%; for `Cc1c(-c2ccc(Cl)cc2F)c(C(=O)N[C@H](C)C(C)(C)C)n(Cc2ccccc2)c1C(F)(F)F` [SC-158, 1-Benzyl-3-(4-chloro-2-fluoro-phenyl)-4-methyl-5-(trifluoromethyl)-N-[(1R)-1,2,2-trimethyl-propyl]-1H-pyrrole-2-carboxylic acid amide], 75 to 95%; for `Cc1c(-c2ccc(Cl)cc2F)c(C(=O)N(C)C2CC2)n(Cc2ccccc2)c1C(F)(F)F` [SC-159, 1-Benzyl-3-(4-chloro-2-fluoro-phenyl)-N-cyclopropyl-N,4-dimethyl-5-(trifluoromethyl)-1H-pyrrole-2-carboxylic acid amide], over 95%.
Regarding `Cc1c(-c2ccc(Cl)cc2F)c(C(=O)N(C)C2CCS(=O)(=O)CC2)n(Cc2ccccc2)c1C(F)(F)F` [SC-160, 1-Benzyl-3-(4-chloro-2-fluoro-phenyl)-N-(1,1-dioxo-thian-4-yl)-N,4-dimethyl-5-(trifluoromethyl)-1H-pyrrole-2-carboxylic acid amide], the inhibition at 3 µM was over 95%.
With `Cc1c(-c2ccc(Cl)cc2F)c(C(=O)N(C)CCCS(C)(=O)=O)n(Cc2ccccc2)c1C(F)(F)F` [SC-161, 1-Benzyl-3-(4-chloro-2-fluoro-phenyl)-N,4-dimethyl-N-(3-methylsulfonyl-propyl)-5-(trifluoromethyl)-1H-pyrrole-2-carboxylic acid amide], the inhibition at 3 µM is over 95%.
On to `Cc1c(-c2ccc(Cl)cc2F)c(C(=O)N2CCCC2CS(C)(=O)=O)n(Cc2ccccc2)c1C(F)(F)F` (stereo not shown) [SC-162, [1-Benzyl-3-(4-chloro-2-fluoro-phenyl)-4-methyl-5-(trifluoromethyl)-1H-pyrrol-2-yl]-[2-(methylsulfonyl-methyl)-pyrrolidin-1-yl]-methanone], for which the inhibition at 3 µM is over 95%.
Turning to `Cc1c(-c2ccc(Cl)cc2F)c(C(=O)NCCS(C)(=O)=O)n(Cc2ccccc2)c1C(F)(F)F` [SC-163, 1-Benzyl-3-(4-chloro-2-fluoro-phenyl)-4-methyl-N-(2-methylsulfonyl-ethyl)-5-(trifluoromethyl)-1H-pyrrole-2-carboxylic acid amide], the inhibition at 3 µM is over 95%.
As to `Cc1c(-c2ccc(Cl)cc2F)c(C(=O)N(C)CCC2CCCO2)n(Cc2ccccc2)c1C(F)(F)F` (stereo not shown) [SC-164, 1-Benzyl-3-(4-chloro-2-fluoro-phenyl)-N,4-dimethyl-N-(2-tetrahydro-furan-2-yl-ethyl)-5-(trifluoromethyl)-1H-pyrrole-2-carboxylic acid amide], the inhibition at 3 µM was over 95%.
Take `Cc1c(-c2ccc(Cl)cc2F)c(C(=O)N(C)CC2CCCO2)n(Cc2ccccc2)c1C(F)(F)F` (stereo not shown) [SC-165, 1-Benzyl-3-(4-chloro-2-fluoro-phenyl)-N,4-dimethyl-N-(tetrahydro-furan-2-yl-methyl)-5-(trifluoromethyl)-1H-pyrrole-2-carboxylic acid amide]: the inhibition at 3 µM is over 95%.
Take `Cc1c(-c2ccc(Cl)cc2F)c(C(=O)N2CCC(CO)C2)n(Cc2ccccc2)c1C(F)(F)F` (stereo not shown) [SC-166, [1-Benzyl-3-(4-chloro-2-fluoro-phenyl)-4-methyl-5-(trifluoromethyl)-1H-pyrrol-2-yl]-[3-(hydroxymethyl)-pyrrolidin-1-yl]-methanone]: the inhibition at 3 µM was over 95%.
Take `Cc1c(-c2ccc(Cl)cc2F)c(C(=O)N(C)CC2CCOC2)n(Cc2ccccc2)c1C(F)(F)F` (stereo not shown) [SC-167, 1-Benzyl-3-(4-chloro-2-fluoro-phenyl)-N,4-dimethyl-N-(tetrahydro-furan-3-yl-methyl)-5-(trifluoromethyl)-1H-pyrrole-2-carboxylic acid amide]: the inhibition at 3 µM is over 95%.
`Cc1c(-c2ccc(Cl)cc2F)c(C(=O)N(C)CC(C)(C)S(C)(=O)=O)n(Cc2ccccc2)c1C(F)(F)F` [SC-168, 1-Benzyl-3-(4-chloro-2-fluoro-phenyl)-N,4-dimethyl-N-(2-methyl-2-methylsulfonyl-propyl)-5-(trifluoromethyl)-1H-pyrrole-2-carboxylic acid amide]: the inhibition at 3 µM is over 95%.
As for `Cc1c(-c2ccc(Cl)cc2F)c(C(=O)N(CCS(C)(=O)=O)C(C)C)n(Cc2ccccc2)c1C(F)(F)F` [SC-169, 1-Benzyl-3-(4-chloro-2-fluoro-phenyl)-N-isopropyl-4-methyl-N-(2-methylsulfonyl-ethyl)-5-(trifluoromethyl)-1H-pyrrole-2-carboxylic acid amide], the inhibition at 3 µM was 75 to 95%.
For `Cc1c(-c2ccc(Cl)cc2F)c(C(=O)N2CCS(=O)(=O)C(C)(C)C2)n(Cc2ccccc2)c1C(F)(F)F` [SC-170, [1-Benzyl-3-(4-chloro-2-fluoro-phenyl)-4-methyl-5-(trifluoromethyl)-1H-pyrrol-2-yl]-(2,2-dimethyl-1,1-dioxo-[1,4]thiazinan-4-yl)-methanone] the value was over 95%.
`Cc1c(-c2ccc(Cl)cc2F)c(C(=O)N(C)C2CCS(=O)(=O)C2)n(Cc2ccccc2)c1C(F)(F)F` (stereo not shown) [SC-171, 1-Benzyl-3-(4-chloro-2-fluoro-phenyl)-N-(1,1-dioxo-thiolan-3-yl)-N,4-dimethyl-5-(trifluoromethyl)-1H-pyrrole-2-carboxylic acid amide]: the inhibition at 3 µM was over 95%.
For the molecule `Cc1c(-c2ccc(Cl)cc2F)c(C(=O)NC2CC2)n(Cc2ccccc2)c1C(F)(F)F` [SC-172, 1-Benzyl-3-(4-chloro-2-fluoro-phenyl)-N-cyclopropyl-4-methyl-5-(trifluoromethyl)-1H-pyrrole-2-carboxylic acid amide], the inhibition at 3 µM was 75 to 95%.
For `Cc1c(-c2ccc(Cl)cc2F)c(C(=O)N2CCS(=O)(=O)CC2)n(Cc2ccccc2)c1C(F)(F)F` [SC-173, [1-Benzyl-3-(4-chloro-2-fluoro-phenyl)-4-methyl-5-(trifluoromethyl)-1H-pyrrol-2-yl]-(1,1-dioxo-[1,4]thiazinan-4-yl)-methanone] the value was over 95%; for `CN(CC(C)(C)C(N)=O)C(=O)c1c(-c2ccc(Cl)cc2)cc(C(F)(F)F)n1Cc1ccccc1` [SC-174, 1-Benzyl-N-(2-carbamoyl-2-methyl-propyl)-3-(4-chlorophenyl)-N-methyl-5-(trifluoromethyl)-1H-pyrrole-2-carboxylic acid amide], over 95%.
On to `CN(CCC(C)(C)O)C(=O)c1c(-c2ccc(Cl)cc2)cc(C(F)(F)F)n1Cc1ccccc1` [SC-176, 1-Benzyl-3-(4-chlorophenyl)-N-(3-hydroxy-3-methyl-butyl)-N-methyl-5-(trifluoromethyl)-1H-pyrrole-2-carboxylic acid amide], for which the inhibition at 3 µM is over 95%.
For `CC(C)(CO)CNC(=O)c1c(-c2ccc(Cl)cc2)cc(C(F)(F)F)n1Cc1ccccc1` [SC-177, 1-Benzyl-3-(4-chlorophenyl)-N-(3-hydroxy-2,2-dimethyl-propyl)-5-(trifluoromethyl)-1H-pyrrole-2-carboxylic acid amide], the inhibition at 3 µM is over 95%.
For `CN(CC1(CO)CC1)C(=O)c1c(-c2ccc(Cl)cc2)cc(C(F)(F)F)n1Cc1ccccc1` [SC-178, 1-Benzyl-3-(4-chlorophenyl)-N-[[1-(hydroxymethyl)-cyclopropyl]-methyl]-N-methyl-5-(trifluoromethyl)-1H-pyrrole-2-carboxylic acid amide] the value was over 95%.
With `CN(CC1(CO)CCC1)C(=O)c1c(-c2ccc(Cl)cc2)cc(C(F)(F)F)n1Cc1ccccc1` [SC-179, 1-Benzyl-3-(4-chlorophenyl)-N-[[1-(hydroxymethyl)-cyclobutyl]-methyl]-N-methyl-5-(trifluoromethyl)-1H-pyrrole-2-carboxylic acid amide], the inhibition at 3 µM was over 95%.
As to `CN(CC(C)(C)CN1CCOCC1)C(=O)c1c(-c2ccc(Cl)cc2)cc(C(F)(F)F)n1Cc1ccccc1` [SC-180, 1-Benzyl-3-(4-chlorophenyl)-N-(2,2-dimethyl-3-morpholin-4-yl-propyl)-N-methyl-5-(trifluoromethyl)-1H-pyrrole-2-carboxylic acid amide], the inhibition at 3 µM was in the range of 75 to 95%.
As to `O=C(c1c(-c2ccc(Cl)cc2)cc(C(F)(F)F)n1Cc1ccccc1)N1CCC(CO)C1` (stereo not shown) [SC-181, [1-Benzyl-3-(4-chlorophenyl)-5-(trifluoromethyl)-1H-pyrrol-2-yl]-[3-(hydroxymethyl)-pyrrolidin-1-yl]-methanone], the inhibition at 3 µM was in the range of 75 to 95%.
With `CN(CC1CCOC1)C(=O)c1c(-c2ccc(Cl)cc2)cc(C(F)(F)F)n1Cc1ccccc1` (stereo not shown) [SC-182, 1-Benzyl-3-(4-chlorophenyl)-N-methyl-N-(tetrahydro-furan-3-yl-methyl)-5-(trifluoromethyl)-1H-pyrrole-2-carboxylic acid amide], the inhibition at 3 µM was over 95%.
Consider `CN(CC(C)(CO)CO)C(=O)c1c(-c2ccc(Cl)cc2)cc(C(F)(F)F)n1Cc1ccccc1` [SC-183, 1-Benzyl-3-(4-chlorophenyl)-N-[3-hydroxy-2-(hydroxymethyl)-2-methyl-propyl]-N-methyl-5-(trifluoromethyl)-1H-pyrrole-2-carboxylic acid amide], for which the inhibition at 3 µM is over 95%.
